The target of one experiment is PEG-3 (UniProt Q6IN02). In words: GAPDH versus PEG-3 reporter suppression – cell-based, luminescence, counter-screen for PEG-3 promoter inhibitor project, SAR follow-up (AID 651551). The following applies: HeLa PEG-Prom / GAPDH luciferase reporter, 6 or 24 h, mean of runs.
Assay in experiment [1]: as above
As to conditions: HeLa PEG-Prom / GAPDH luciferase reporter, 6 or 24 h, GAPDH, mean of runs.

Calls of active or inactive are those of the source.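 The calls were made as follows: active = compounds blocking the Peg3 reporter with IC50 up to 10 µM at 6 or 24 hours, yet inert on a control reporter; inactive = the rest.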 Some results are limits rather than exact numbers.

For `Cc1cc(NC(=O)c2ccccc2C(F)(F)F)n(-c2nc3ccccc3[nH]2)n1`, the IC50 result (on PEG-3 (6 h); on PEG-3 (24 h); in experiment [1] (6 h)) was “inactive” throughout. In addition, the IC50 in experiment [1] (24 h) was 8.73 µM.
As for `CCCn1nc(C(=O)Nc2nc3ccccc3s2)c2ccccc2c1=O`, the IC50 (at PEG-3 (6 h); on PEG-3 (24 h); in experiment [1] (6 h)) was > 99 µM (inactive) throughout. Besides, in experiment [1] (24 h), the IC50 entry is “inactive”.
As for `O=C(Nc1nccs1)c1nn(-c2ccccc2)c(=O)c2ccccc12`, the IC50 on PEG-3 (6 h) was > 99 µM (inactive); at PEG-3 (24 h), > 99 µM (inactive); in experiment [1] (24 h), 8.39 µM. Also, the IC50 result in experiment [1] (6 h) was “inactive”.
Consider `COCCCNC(=O)c1ccc(Cn2c(=O)c3ccccc3n(Cc3ccccc3C#N)c2=O)cc1`, for which the IC50 at PEG-3 (6 h) is > 99 µM (inactive); at PEG-3 (24 h), 6.52 µM; in experiment [1] (6 h) it was > 99 µM (inactive); in experiment [1] (24 h), 4.68 µM.
With `Cc1cc(NC(=O)c2cccc(C)c2C)n(-c2nc3ccccc3[nH]2)n1`, the IC50 result (on PEG-3 (6 h); in experiment [1] (24 h)) was “inactive” throughout. Besides, the IC50 (at PEG-3 (24 h); in experiment [1] (6 h)) was > 99 µM (inactive) each time.
As for `COc1ccc(-n2nc(C(=O)NCC(=O)Nc3cccc(OC)c3)c3ccccc3c2=O)cc1`, the IC50 (at PEG-3 (6 h); on PEG-3 (24 h); in experiment [1] (6 h)) was > 99 µM (inactive) throughout. Further, in experiment [1] (24 h), the IC50 entry is “inactive”.
For `CCn1cc(C(=O)NCc2ccco2)c(=O)c2cc(S(=O)(=O)N3CCCC3)ccc21`, the IC50 (at PEG-3 (6 h); at PEG-3 (24 h); in experiment [1] (6 h)) was > 99 µM (inactive) throughout. Moreover, the IC50 result in experiment [1] (24 h) is “inactive”.
In the case of `CCCn1nc(C(=O)Nc2nc(-c3ccccn3)cs2)c2ccccc2c1=O`, the IC50 is 8.66 µM at PEG-3 (6 h) and 7.06 µM in experiment [1] (24 h). In addition, the IC50 result (at PEG-3 (24 h); in experiment [1] (6 h)) was “inactive” in each case.
Consider `COc1ccc(Cl)cc1Nc1nc(-c2sc(NC(=O)c3ccccc3)nc2C)cs1`, for which the IC50 result on PEG-3 (6 h) and on PEG-3 (24 h) was “inactive” each time. Besides, the IC50 is > 99 µM (inactive) in experiment [1] (6 h) and 9.9 µM in experiment [1] (24 h).
Regarding `Cc1ccc(Cl)cc1Nc1nc(-c2sc(NC(=O)c3ccco3)nc2C)cs1`, the IC50 entry (at PEG-3 (6 h); on PEG-3 (24 h); in experiment [1] (6 h)) was “inactive” throughout. In addition, the IC50 in experiment [1] (24 h) was 7.63 µM.
Regarding `Cc1cc(NC(=O)c2ccccc2)n(-c2nc3ccccc3[nH]2)n1`, the IC50 entry at PEG-3 (6 h) and at PEG-3 (24 h) was “inactive” throughout. Also, the IC50 in experiment [1] (6 h) and in experiment [1] (24 h) was > 99 µM (inactive) each time.
For the molecule `Cc1nc(NC(=O)c2ccccc2)sc1-c1csc(Nc2ccccc2Cl)n1`, the IC50 on PEG-3 (6 h) was > 99 µM (inactive); at PEG-3 (24 h), > 99 µM (inactive); in experiment [1] (6 h), > 99 µM (inactive); in experiment [1] (24 h), 7.52 µM.
On to `CCn1nc(C(=O)Nc2nc(-c3ccccn3)cs2)c2ccccc2c1=O`, for which the IC50 result (on PEG-3 (6 h); in experiment [1] (6 h)) was “inactive” in each case. The IC50 on PEG-3 (24 h) was 6.13 µM; in experiment [1] (24 h), 3.96 µM.
As to `COc1ccc(-n2nc(C(=O)NCC(=O)Nc3ccc(OC)c(OC)c3)c3ccccc3c2=O)cc1`, the IC50 at PEG-3 (6 h) and at PEG-3 (24 h) was > 99 µM (inactive) in each case. For the same molecule, the IC50 result in experiment [1] (6 h) and in experiment [1] (24 h) was “inactive” each time.
For `Cc1nc(NC(=O)c2ccccc2)sc1-c1csc(Nc2cccc(Cl)c2C)n1`, the IC50 (on PEG-3 (6 h); on PEG-3 (24 h); in experiment [1] (6 h)) was > 99 µM (inactive) each time. Besides, in experiment [1] (24 h), the IC50 result was “inactive”.
With `COc1ccc(-n2nc(C(=O)NCC(=O)Nc3cc(OC)c(OC)c(OC)c3)c3ccccc3c2=O)cc1OC`, the IC50 was > 99 µM (inactive) at PEG-3 (6 h), > 99 µM (inactive) on PEG-3 (24 h), > 99 µM (inactive) in experiment [1] (6 h) and 6.31 µM in experiment [1] (24 h).
Turning to `CCCn1nc(C(=O)Nc2nc(-c3ccncc3)cs2)c2ccccc2c1=O`, the IC50 result (at PEG-3 (6 h); on PEG-3 (24 h); in experiment [1] (6 h)) was “inactive” throughout. Besides, the IC50 in experiment [1] (24 h) is 5.32 µM.
Consider `COc1ccccc1Nc1nc(-c2sc(NC(=O)c3ccco3)nc2C)cs1`, for which the IC50 at PEG-3 (6 h) is > 99 µM (inactive); on PEG-3 (24 h), > 99 µM (inactive); in experiment [1] (24 h), 4.17 µM. Moreover, the IC50 entry in experiment [1] (6 h) is “inactive”.
In the case of `Cc1cc(NC(=O)c2ccccc2C)n(-c2nc3ccccc3[nH]2)n1`, the IC50 result (at PEG-3 (6 h); on PEG-3 (24 h); in experiment [1] (24 h)) was “inactive” each time. The IC50 in experiment [1] (6 h) was > 99 µM (inactive).
Consider `Cc1nc(NC(=O)c2ccccc2)sc1-c1csc(Nc2ccccc2)n1`, for which the IC50 at PEG-3 (6 h) is > 99 µM (inactive). Moreover, the IC50 result (at PEG-3 (24 h); in experiment [1] (6 h); in experiment [1] (24 h)) was “inactive” throughout.
Regarding `Cc1cc(NC(=O)c2ccccc2)n(-c2nc3ccccc3n2C)n1`, at PEG-3 (6 h), the IC50 result is “inactive”. In addition, the IC50 (at PEG-3 (24 h); in experiment [1] (6 h); in experiment [1] (24 h)) was > 99 µM (inactive) in each case.
Consider `O=C(Nc1nc(-c2ccccc2)cs1)c1nn(-c2ccccc2)c(=O)c2ccccc12`, for which the IC50 (at PEG-3 (6 h); on PEG-3 (24 h); in experiment [1] (6 h); in experiment [1] (24 h)) was > 99 µM (inactive) in each case.
As for `O=C(Nc1nc2ccccc2s1)c1nn(-c2ccccc2)c(=O)c2ccccc12`, the IC50 (at PEG-3 (6 h); on PEG-3 (24 h); in experiment [1] (6 h)) was > 99 µM (inactive) throughout. Also, the IC50 result in experiment [1] (24 h) was “inactive”.

(Values after PubChem BioAssay AID651551 (Sanford-Burnham Center for Chemical Genomics, 2012).)
